Reference: patent US20150152088A1, “ALKYNYL HETEROAROMATIC COMPOUND AND USE THEREOF” (Nanjing Sanhome Pharmaceutical Co., Ltd., priority 2012, published 2015)

Test system: K562 chronic myelogenous leukemia cells
Assay: MTT assay, in vitro inhibitory activity on cells
Type: cell-based
Conditions: Homo sapiens, K562, 48 h, typically 48 hours
Description: In this example, MTT assay was used to detect in vitro inhibitory activity of the compounds prepared according to the above examples on the cells. […] AP24534 was purchased from Shanghai Xinkuo Chemical Technology Co., Ltd., China.
Dimethyl sulfoxide (DMSO) is capable of dissolving formazan in cells, and absorbance value can be measured at a wavelength of 490 nm by an enzyme-linked immunometric meter, which reflects the number of living cells. Within a certain range of the number of cells, the amount of MTT crystals formed is proportional to the number of living cells.
1. […] 2. Culturing in a 37° C., 5% CO2 incubator and keeping the cells adhering to the wall of the well. 3. […] 4. Carefully removing the supernatant, gently washing with PBS and discarding the supernatant again. 5. […] 6. Terminating culturing and carefully discarding the medium in each well. 7. Adding 150 μl dimethyl sulfoxide into each well, shaking for 10 minutes at low speed in a shaker, to make crystals fully dissolved. 8. Measuring the absorbance of each well at 490 nm by an enzyme-linked immunometric meter. 9. Calculating IC50 values.

| Compound | IC50 [µM] |
| --- | --- |
| CC(=O)Nc1ncc2c(F)cc(C#Cc3cc(C(=O)Nc4ccc(CN5CCN(C)CC5)c(C(F)(F)F)c4)ccc3C)cc2n1 [Example 10, 3-((5-fluoro-2-acetylaminoquinazolin-7-yl)ethynyl)-4-methyl-N-[4-((4-methylpiperazin-1-yl)methyl)-3-trifluoromethylphenyl]benzamide] | 6.88 |
| Cc1ccc(C(=O)Nc2ccc(CN3CCS(=O)(=O)CC3)c(C(F)(F)F)c2)cc1C#Cc1cccc2ncncc12 [Example 17] | 8.72 |
| Cc1cn(-c2cc(NC(=O)c3ccc(F)c(C#Cc4cccc5ncncc45)c3)cc(C(F)(F)F)c2)cn1 [Example 24, 3-((quinazolin-5-yl)ethynyl)-4-fluoro-N-[3-(4-methyl-1H-imidazol-1-yl)-5-trifluoromethylphenyl]benzamide] | 11.4 |
| Cc1ccc(C(=O)Nc2ccc(CN3CCN(C)CC3)c(C(F)(F)F)c2)cc1C#Cc1cccc2nc(N)ncc12 [Example 27, 3-((2-aminoquinazolin-5-yl)ethynyl)-4-methyl-N-[(4-(4-methylpiperazin-1-yl)methyl)-3-trifluoromethylphenyl]benzamide] | 9.05 |
| CNc1ncc2c(C#Cc3cc(C(=O)Nc4ccc(CN5CCN(C)CC5)c(C(F)(F)F)c4)ccc3C)cccc2n1 [Example 28, 3-((2-methylaminoquinazolin-5-yl)ethynyl)-4-methyl-N-[(4-((4-methyl)piperazin-1-yl)methyl)-3-trifluoromethylphenyl]benzamide] | 15.5 |
| CNC(=O)c1cc(Oc2ccc(NC(=O)c3ccc(C)c(C#Cc4cccc5ncncc45)c3)cc2)ccn1 [Example 29, 3-((quinazolin-5-yl)ethynyl)-4-methyl-N-[4-(2-(N-methylcarboxamido)pyridinyl-4-oxy)phenyl]benzamide] | 24.1 |
| CNC(=O)c1cc(Oc2ccc(NC(=O)c3ccc(C)c(C#Cc4ccc5c(NC)ncnc5c4)c3)cc2)ccn1 [Example 30] | 89.1 |

Next, values leading:

| IC50 [µM] | Compound |
| --- | --- |
| 3.72 | Cc1ccc(C(=O)Nc2ccc(CN3CCN(C)CC3)c(C(F)(F)F)c2)cc1C#Cc1ccc2ncncc2c1 [Example 2, 3-((quinazolin-6-yl)ethynyl)-4-methyl-N-[4-((4-methylpiperazin-1-yl)methyl)-3-trifluoromethylphenyl]benzamide] |
| 1.6 | CC(=O)Nc1ncc2ccc(C#Cc3cc(C(=O)Nc4ccc(CN5CCN(C)CC5)c(C(F)(F)F)c4)ccc3C)cc2n1 [Example 8, 3-((2-acetylaminoquinazolin-7-yl)ethynyl)-4-methyl-N-[4-((4-methylpiperazin-1-yl)methyl)-3-trifluoromethylphenyl]benzamide] |
| 5.68 | CNc1ncnc2cc(C#Cc3cc(C(=O)Nc4ccc(CN5CCN(CCO)CC5)c(C(F)(F)F)c4)ccc3C)ccc12 [Example 14, 3-((4-methylaminoquinazolin-7-yl)ethynyl)-4-methyl-N-[4-((4-(2-hydroxyethyl)piperazin-1-yl)methyl)-3-trifluoromethylphenyl]benzamide] |
| 2.9 | CNc1ncc2ccc(C#Cc3cc(C(=O)Nc4ccc(CN5CCN(CCO)CC5)c(C(F)(F)F)c4)ccc3C)cc2n1 [Example 15, 3-((2-methylaminoquinazolin-7-yl)ethynyl)-4-methyl-N-[4-((4-(2-hydroxyethyl)piperazin-1-yl)methyl)-3-trifluoromethylphenyl]benzamide] |
| 8.1 | Cc1ccc(C(=O)Nc2ccc(CN3CCN(C)CC3)c(C(F)(F)F)c2)cc1C#Cc1ccc2c(c1)nc(N)n2C [Example 22, 3-((2-amino-1-methyl-1H-benzo[d]imidazol-5-yl)ethynyl)-4-methyl-N-[(4-(4-methylpiperazin-1-yl)methyl)-3-trifluoromethylphenyl]benzamide] |

Same assay, conditions: typically 48 hours

| IC50 [µM] | Compound |
| --- | --- |
| 8.1 | Cc1ccc(C(=O)Nc2ccc(CN3CCC(N(C)C)C3)c(C(F)(F)F)c2)cc1C#Cc1cccc2ncncc12 (stereo in doubt) [Example 19, 3-((quinazolin-5-yl)ethynyl)-4-methyl-(S)—N-[4-((3-(dimethylamino)pyrrolidin-1-yl)methyl)-3-trifluoromethylphenyl]benzamide] |
